Measurements published in PubChem BioAssay AID248 (DTP/NCI, 2004).
Inconclusive results and toxic doses are left out.

Test system: L1210 leukemia ip in BDF1 mice, survival T/C
Test: NCI In Vivo Anticancer Drug Screen. Data for tumor model L1210 Leukemia (intraperitoneal) in B6D2F1 (BDF1) mice
Settings: endpoint: mean survival time, higher = longer survival
How it was run: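 Antitumor effect is assessed in tumor-bearing animals. Survival in the compound arm is compared with a vehicle-dosed control arm and expressed as their quotient.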

[1] = dose: 400.0 mg/kg/injection, schedule: Q04DX002 (ip), vehicle: saline with Tween-80
[2] = dose: 100.0 mg/kg/injection, schedule: Q01DX001 (ip), vehicle: saline
[3] = dose: 200.0 mg/kg/injection, schedule: Q01DX001 (ip), vehicle: saline
[4] = dose: 400.0 mg/kg/injection, schedule: Q01DX001 (ip), vehicle: saline
[5] = dose: 75.0 mg/kg/injection, schedule: Q01DX001 (ip), vehicle: saline
[6] = dose: 50.0 mg/kg/injection, schedule: Q01DX001 (ip), vehicle: saline
[7] = dose: 100.0 mg/kg/injection, schedule: Q04DX003 (ip), vehicle: saline
[8] = dose: 200.0 mg/kg/injection, schedule: Q04DX003 (ip), vehicle: saline
[9] = dose: 400.0 mg/kg/injection, schedule: Q04DX003 (ip), vehicle: saline
[10] = dose: 100.0 mg/kg/injection, schedule: Q04DX003 (ip), vehicle: Klucel (hydroxypropylcellulose) (HPC)
[11] = dose: 200.0 mg/kg/injection, schedule: Q04DX003 (ip), vehicle: Klucel (hydroxypropylcellulose) (HPC)
[12] = dose: 100.0 mg/kg/injection, schedule: Q01DX001 (ip), vehicle: carboxymethylcellulose (CMC)
[13] = dose: 200.0 mg/kg/injection, schedule: Q01DX001 (ip), vehicle: carboxymethylcellulose (CMC)
[14] = dose: 400.0 mg/kg/injection, schedule: Q01DX001 (ip), vehicle: carboxymethylcellulose (CMC)
[15] = dose: 100.0 mg/kg/injection, schedule: Q01DX009 (ip), vehicle: saline

`O=C1c2ccccc2-c2c(I)cccc21` was tested, and the T/C (dose: 25.6 mg/kg/injection, schedule: Q04DX002 (ip), vehicle: saline with Tween-80) was 94 % of control, the T/C (dose: 64.0 mg/kg/injection, schedule: Q04DX002 (ip), vehicle: saline with Tween-80) was 94 % of control and the T/C (dose: 160.0 mg/kg/injection, schedule: Q04DX002 (ip), vehicle: saline with Tween-80) was 98 % of control. The T/C [1] was 94 % of control.
In the case of `CC1C(N2CCCCC2)CS1(=O)=O` (configuration not stated), the T/C (dose: 100.0 mg/kg/injection, schedule: Q04DX002 (ip), vehicle: saline) is reported as 121 % of control.
With `O=C(O)C1CCCN1O` (configuration not stated) the T/C [2] was 104 % of control, the T/C [3] was 98 % of control and the T/C [4] was 98 % of control.
For `COc1ccc2c(Nc3ccc(NS(C)(=O)=O)cc3)c3ccccc3nc2c1`, the T/C (dose: 6.25 mg/kg/injection, schedule: Q01DX009 (ip), vehicle: saline with Tween-80) was 183 % of control, the T/C (dose: 12.5 mg/kg/injection, schedule: Q01DX009 (ip), vehicle: saline with Tween-80) was 181 % of control and the T/C (dose: 25.0 mg/kg/injection, schedule: Q01DX009 (ip), vehicle: saline with Tween-80) was 117 % of control. The T/C (dose: 25.0 mg/kg/injection, schedule: Q01DX009 (sc), vehicle: saline) was 164 % of control, the T/C (dose: 44.0 mg/kg/injection, schedule: Q04DX003 (ip), vehicle: saline with Tween-80) was 172 % of control and the T/C (dose: 50.0 mg/kg/injection, schedule: Q01DX009 (sc), vehicle: saline) was 95 % of control. The T/C (dose: 67.0 mg/kg/injection, schedule: Q04DX003 (ip), vehicle: saline with Tween-80) was 169 % of control and the T/C (dose: 100.0 mg/kg/injection, schedule: Q04DX003 (ip), vehicle: saline with Tween-80) was 276 % of control.
In the case of `CCCc1nc2c(=O)n(C3OC(CO)C(O)C3O)cnc2o1` (configuration not stated), the T/C (dose: 100.0 mg/kg/injection, schedule: Q01DX005 (ip), vehicle: saline) is reported as 95 % of control and the T/C (dose: 200.0 mg/kg/injection, schedule: Q01DX005 (ip), vehicle: saline) is reported as 91 % of control.
With `Nc1ccccc1-c1ccccc1` the T/C [5] was 112 % of control.
For `Oc1ccc2ccc(O)c(C(NC(O)c3ccccc3)c3ccccc3)c2c1C(NC(O)c1ccccc1)c1ccccc1` (configuration not stated), the T/C (dose: 10.0 mg/kg/injection, schedule: Q01DX001 (ip), vehicle: saline) was 96 % of control, the T/C (dose: 20.0 mg/kg/injection, schedule: Q01DX001 (ip), vehicle: saline) was 96 % of control and the T/C (dose: 40.0 mg/kg/injection, schedule: Q01DX001 (ip), vehicle: saline) was 93 % of control.
For `CC(C)(CN)CCBr`, the T/C [6] was 95 % of control, the T/C [2] was 88 % of control and the T/C [3] was 101 % of control. The T/C [4] was 92 % of control.
With `CC(=O)NC1COC(O)C(O)C1O` (configuration not stated) the T/C [7] was 94 % of control, the T/C [8] was 101 % of control and the T/C [9] was 101 % of control.
`COc1cccc(OC)c1C#N` was tested, and the T/C (dose: 50.0 mg/kg/injection, schedule: Q01DX009 (ip), vehicle: Klucel (hydroxypropylcellulose) (HPC)) was 95 % of control, the T/C (dose: 100.0 mg/kg/injection, schedule: Q01DX009 (ip), vehicle: Klucel (hydroxypropylcellulose) (HPC)) was 96 % of control and the T/C [10] was 98 % of control. The T/C (dose: 200.0 mg/kg/injection, schedule: Q01DX009 (ip), vehicle: Klucel (hydroxypropylcellulose) (HPC)) was 95 % of control and the T/C [11] was 98 % of control.
In the case of `O=C1c2ccccc2CC1(c1ccccc1)c1ccccc1`, the T/C [12] is reported as 91 % of control, the T/C [13] is reported as 94 % of control and the T/C [14] is reported as 94 % of control.
For `COP(=S)(OC)N1CC1`, the T/C (dose: 11.1 mg/kg/injection, schedule: Q01DX Z (ip), vehicle: saline) was 108 % of control, the T/C (dose: 16.6 mg/kg/injection, schedule: Q01DX Z (ip), vehicle: saline) was 100 % of control and the T/C (dose: 25.0 mg/kg/injection, schedule: Q01DX Z (ip), vehicle: saline) was 100 % of control.
For `CCOC(CN(Cc1ccc(OC)c(OCc2ccccc2)c1)S(=O)(=O)c1ccc(C)cc1)OCC`, the T/C (dose: 25.0 mg/kg/injection, schedule: Q01DX009 (ip), vehicle: water) was 102 % of control, the T/C (dose: 50.0 mg/kg/injection, schedule: Q01DX009 (ip), vehicle: water) was 94 % of control and the T/C (dose: 100.0 mg/kg/injection, schedule: Q01DX009 (ip), vehicle: water) was 97 % of control. The T/C (dose: 200.0 mg/kg/injection, schedule: Q01DX009 (ip), vehicle: water) was 94 % of control and the T/C (dose: 400.0 mg/kg/injection, schedule: Q01DX009 (ip), vehicle: water) was 96 % of control.
`CCOC(=O)CCCN1CCC=C(C#N)C1` was tested, and the T/C [5] was 102 % of control and the T/C (dose: 300.0 mg/kg/injection, schedule: Q01DX001 (ip), vehicle: saline) was 107 % of control.
`CC(C)(O)C(O)C(=O)O` (configuration not stated) was tested, and the T/C [15] was 92 % of control, the T/C [7] was 106 % of control and the T/C (dose: 200.0 mg/kg/injection, schedule: Q01DX009 (ip), vehicle: saline) was 89 % of control. For the same compound, the T/C [8] was 104 % of control and the T/C [9] was 97 % of control.
In the case of `CCOC(=O)/C=C(\CC(=O)OCC)Nc1ccc(OC)cc1`, the T/C (dose: 50.0 mg/kg/injection, schedule: Q01DX009 (ip), vehicle: saline) is reported as 89 % of control, the T/C [15] is reported as 91 % of control and the T/C (dose: 100.0 mg/kg/injection, schedule: Q04DX003 (ip), vehicle: acetone) is reported as 91 % of control. For the same compound, the T/C (dose: 200.0 mg/kg/injection, schedule: Q04DX003 (ip), vehicle: acetone) was 100 % of control and the T/C (dose: 400.0 mg/kg/injection, schedule: Q04DX003 (ip), vehicle: acetone) was 97 % of control.
In the case of `CCCCCCCCCCCC(=O)NC(=S)Nc1cccc2ccccc12`, the T/C [10] is reported as 90 % of control and the T/C [11] is reported as 97 % of control.
In the case of `C=CCc1cc(OC)c(OCc2ccccc2)cc1[N+](=O)[O-]`, the T/C (dose: 100.0 mg/kg/injection, schedule: Q04DX002 (ip), vehicle: saline with Tween-80) is reported as 101 % of control, the T/C (dose: 200.0 mg/kg/injection, schedule: Q04DX002 (ip), vehicle: saline with Tween-80) is reported as 87 % of control and the T/C [1] is reported as 90 % of control.
With `NC1CCS(=O)(=O)C1` (configuration not stated) the T/C [2] was 95 % of control, the T/C [3] was 98 % of control and the T/C [4] was 101 % of control.
`Cc1ccc2nn(-c3ccc(O)cc3)[n+]([O-])c2c1` was tested, and the T/C [12] was 102 % of control, the T/C [13] was 107 % of control and the T/C [14] was 93 % of control.
With `C=C(C)CN1C(=O)c2ccccc2C1=O` the T/C (dose: 25.0 mg/kg/injection, schedule: Q01DX009 (ip), vehicle: gum acacia) was 94 % of control, the T/C (dose: 50.0 mg/kg/injection, schedule: Q01DX009 (ip), vehicle: gum acacia) was 96 % of control and the T/C (dose: 100.0 mg/kg/injection, schedule: Q01DX009 (ip), vehicle: gum acacia) was 88 % of control. The T/C (dose: 100.0 mg/kg/injection, schedule: Q04DX003 (ip), vehicle: gum acacia) was 108 % of control, the T/C (dose: 200.0 mg/kg/injection, schedule: Q04DX003 (ip), vehicle: gum acacia) was 97 % of control and the T/C (dose: 400.0 mg/kg/injection, schedule: Q04DX003 (ip), vehicle: gum acacia) was 93 % of control.
In the case of `S=P(Oc1cc(Cl)c(Cl)cc1Cl)(N1CCN(c2ccccc2)CC1)N1CCN(c2ccccc2)CC1`, the T/C [2] is reported as 90 % of control, the T/C [3] is reported as 90 % of control and the T/C [4] is reported as 88 % of control.
`N#C/C(=C1/N=C(N)NC1=O)c1ccc(Cl)cc1` was tested, and the T/C (dose: 25.0 mg/kg/injection, schedule: Q01DX001 (ip), vehicle: saline with Tween-80) was 92 % of control, the T/C (dose: 50.0 mg/kg/injection, schedule: Q01DX001 (ip), vehicle: saline with Tween-80) was 89 % of control and the T/C (dose: 100.0 mg/kg/injection, schedule: Q01DX001 (ip), vehicle: saline with Tween-80) was 94 % of control.
`COc1ccc(C2(OC)Oc3ccccc3C(=O)C2(O)OC)cc1OC` (configuration not stated) was tested, and the T/C [6] was 105 % of control, the T/C [2] was 103 % of control and the T/C [3] was 100 % of control. The T/C [4] was 97 % of control.
In the case of `Cc1cccc(C)c1NC(=O)N(CCCl)N=O`, the T/C (dose: 5.7 mg/kg/injection, schedule: Q01DX Z (oral), vehicle: carboxymethylcellulose (CMC)) is reported as 150 % of control, the T/C (dose: 13.0 mg/kg/injection, schedule: Q01DX Z (oral), vehicle: carboxymethylcellulose (CMC)) is reported as 206 % of control and the T/C (dose: 16.0 mg/kg/injection, schedule: Q01DX001 (ip), vehicle: carboxymethylcellulose (CMC)) is reported as 192 % of control. The T/C (dose: 20.0 mg/kg/injection, schedule: Q01DX Z (oral), vehicle: carboxymethylcellulose (CMC)) was 170 % of control, the T/C (dose: 31.0 mg/kg/injection, schedule: Q01DX001 (ip), vehicle: carboxymethylcellulose (CMC)) was 308 % of control and the T/C (dose: 62.0 mg/kg/injection, schedule: Q01DX001 (ip), vehicle: carboxymethylcellulose (CMC)) was 156 % of control. The T/C (dose: 125.0 mg/kg/injection, schedule: Q01DX001 (ip), vehicle: carboxymethylcellulose (CMC)) was 156 % of control and the T/C (dose: 187.0 mg/kg/injection, schedule: Q01DX001 (ip), vehicle: carboxymethylcellulose (CMC)) was 91 % of control.
